Experimental data from ChEMBL document CHEMBL6078617, “Discovery of MK-1084: An Orally Bioavailable and Low-Dose KRASG12C Inhibitor” (J Med Chem, 2024).
Activity calls are given as the source filed them. No cut-off for these calls is given here.

How the values were obtained:
GTPase KRas [1] = target: T1, GTPase KRas (Homo sapiens, UniProt P01116, G12C); assay: Inhibition of recombinant biotinylated KRAS G12C mutant (unknown origin) assessed as human SOS catalyzed nucleotide exchange measured after 60 mins by TR-FRET based guanine nucleotide exchange assay
T1 sequence (P01116 whole entry G12C): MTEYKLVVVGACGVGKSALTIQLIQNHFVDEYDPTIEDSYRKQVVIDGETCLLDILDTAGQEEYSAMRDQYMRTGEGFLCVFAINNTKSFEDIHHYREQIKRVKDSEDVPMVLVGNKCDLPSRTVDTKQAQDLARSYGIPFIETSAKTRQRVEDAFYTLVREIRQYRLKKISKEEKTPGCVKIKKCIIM

GTPase KRas [2] = target: T1, GTPase KRas; assay: Inhibition of KRAS G12C mutant in human NCI-H358 cells assessed as reduction in Erk1/2 phosphorylation level measured for 8 hrs by Western blot analysis; type: cell-based
[3] = Plasma clearance in fasted Wistar-Han rat measured up to 24 hrs by LC-MS/MS analysis; type: ADME
[4] = Unbound plasma clearance in fasted Wistar-Han rat measured up to 24 hrs by LC-MS/MS analysis; type: ADME
[5] = MRT in fasted Wistar-Han rat measured up to 24 hrs by LC-MS/MS analysis; type: ADME; conditions: in vivo
[6] = Oral bioavailability in fasted Wistar-Han rat measured up to 24 hrs by LC-MS/MS analysis; type: ADME, organism-based; conditions: in vivo
[7] = Apparent permeability in MDCK-II cells; type: ADME, cell-based, Canis lupus familiaris; conditions: dog
[8] = Plasma clearance in male Beagle dog measured up to 24 hrs by LC-MS/MS analysis; type: ADME, Canis lupus familiaris
[9] = Unbound plasma clearance in male Beagle dog measured up to 24 hrs by LC-MS/MS analysis; type: ADME, Canis lupus familiaris
[10] = MRT in male Beagle dog measured up to 24 hrs by LC-MS/MS analysis; type: ADME, Canis lupus familiaris; conditions: in vivo
[11] = Oral bioavailability in male Beagle dog measured up to 24 hrs by LC-MS/MS analysis; type: ADME, organism-based, Canis lupus familiaris; conditions: in vivo
MIA PaCa-2 = assay: In vivo antitumor activity against […] cells xenografted in rat model assessed as decrease in tumor volume at 30 mg/kg, po qd measured up to 21 days; type: functional, organism-based; conditions: Homo sapiens, time <= 21.0 day
PDX LU2512 = assay: In vivo antitumor activity against patient-derived PDX LU2512 cells xenografted in rat model assessed as decrease in tumor volume at 30 mg/kg, po qd measured up to 21 days; type: functional, organism-based; conditions: Homo sapiens, time <= 21.0 day
PDX LU2529 = assay: In vivo antitumor activity against patient-derived PDX LU2529 cells xenografted in rat model assessed as decrease in tumor volume at 30 mg/kg, po qd measured up to 21 days; type: functional, organism-based; conditions: Homo sapiens, time <= 21.0 day
[12] = Oral bioavailability in fasted Wistar-Han rat measured up to 24 hrs pre-dosed with ABT by LC-MS/MS analysis; type: ADME, organism-based; conditions: in vivo

C=CC(=O)N1C[C@H](C)N(c2nc(=O)n3c4nc(c(F)cc24)-c2c(F)cc(F)cc2OCCOc2ccnc(C(C)C)c2-3)C[C@H]1C
IC50 (GTPase KRas [1]): 6.9 nM | IC50 (GTPase KRas [2]): 16 nM | clearance [3]: 40 mL/min/kg | CL free [4]: 407 mL/min/kg | MRT [5]: 0.7 h | bioavailability [6]: 12%

C=CC(=O)N1C[C@H](C)N(c2nc(=O)n3c4nc(c(C)cc24)-c2c(F)ccc(F)c2OCCOc2ccnc(C(C)C)c2-3)C[C@H]1C
IC50 (GTPase KRas [1]): 4.5 nM | IC50 (GTPase KRas [2]): 30 nM | Papp [7]: 13 ×10⁻⁶ cm/s | clearance [3]: 12 mL/min/kg | CL free [4]: 148 mL/min/kg | MRT [5]: 0.9 h | bioavailability [6]: 17%

C=CC(=O)N1C[C@H](C)N(c2nc(=O)n3c4nc(c(Cl)cc24)-c2c(F)ccc(F)c2OCCOc2ccnc(C(C)C)c2-3)C[C@H]1C
IC50 (GTPase KRas [1]): 1.2 nM | IC50 (GTPase KRas [2]): 9 nM | Papp [7]: 20 ×10⁻⁶ cm/s | clearance [3]: 22 mL/min/kg | CL free [4]: 606 mL/min/kg | MRT [5]: 1.1 h | bioavailability [6]: 61% | clearance [8]: 28 mL/min/kg | CL free [9]: 243 mL/min/kg | MRT [10]: 1.1 h | bioavailability [11]: 58% | Activity (MIA PaCa-2): Active | Activity (PDX LU2512): Active | Activity (PDX LU2529): Active

C=CC(=O)N1C[C@H](C)N(c2nc(=O)n3c4nc(c(F)cc24)-c2c(ccc(F)c2F)OCCOc2ccnc(C(C)C)c2-3)C[C@H]1C
IC50 (GTPase KRas [1]): 5.3 nM | IC50 (GTPase KRas [2]): 10 nM | Papp [7]: 9 ×10⁻⁶ cm/s | clearance [3]: 26 mL/min/kg | CL free [4]: 434 mL/min/kg | MRT [5]: 0.7 h | bioavailability [6]: 10%

C=CC(=O)N1C[C@H](C)N(c2nc(=O)n3c4nc(c(F)cc24)-c2c(F)cccc2OCCOc2ccnc(C(C)C)c2-3)C[C@H]1C
IC50 (GTPase KRas [1]): 6.5 nM | IC50 (GTPase KRas [2]): 11 nM | Papp [7]: 8 ×10⁻⁶ cm/s | clearance [3]: 49 mL/min/kg | CL free [4]: 299 mL/min/kg | MRT [5]: 0.6 h | bioavailability [6]: 5% | bioavailability [12]: 11%

C=CC(=O)N1CCN(c2nc(=O)n3c4nc(c(Cl)cc24)-c2c(F)cccc2OCCc2ccccc2-3)[C@@H](C)C1
IC50 (GTPase KRas [1]): 1410 nM | IC50 (GTPase KRas [2]): 3830 nM

C=CC(=O)N1C[C@H](C)N(c2nc(=O)n3c4nc(c(F)cc24)-c2c(F)cccc2OCC(F)(F)CCc2ccnc(C(C)C)c2-3)C[C@H]1C
IC50 (GTPase KRas [1]): 2.9 nM | IC50 (GTPase KRas [2]): 6.6 nM | Papp [7]: 23 ×10⁻⁶ cm/s | clearance [3]: 9.7 mL/min/kg | CL free [4]: 113 mL/min/kg | MRT [5]: 2.3 h | bioavailability [6]: 12% | clearance [8]: 18 mL/min/kg | CL free [9]: 160 mL/min/kg | MRT [10]: 2.2 h | bioavailability [11]: 59%

C=CC(=O)N1C[C@H](C)N(c2nc(=O)n3c4nc(c(F)cc24)-c2c(ccc(F)c2F)OCC(F)(F)CCc2ccnc(C(C)C)c2-3)C[C@H]1C
IC50 (GTPase KRas [1]): 3 nM | IC50 (GTPase KRas [2]): 5.2 nM | Papp [7]: 25 ×10⁻⁶ cm/s | clearance [3]: 13 mL/min/kg | CL free [4]: 213 mL/min/kg | MRT [5]: 1.8 h | bioavailability [6]: 42% | clearance [8]: 7.3 mL/min/kg | CL free [9]: 128 mL/min/kg | MRT [10]: 3.3 h | bioavailability [11]: 80%

C=CC(=O)N1C[C@H](C)N(c2nc(=O)n3c4nc(c(F)cc24)-c2c(F)cccc2OCCCc2ccnc(C(C)C)c2-3)C[C@H]1C
IC50 (GTPase KRas [1]): 1.7 nM | IC50 (GTPase KRas [2]): 7.4 nM

C=CC(=O)N1CCN(c2nc(=O)n3c4nc(c(F)cc24)-c2c(F)cccc2OCCCc2ccnc(C(C)C)c2-3)[C@@H](C)C1
IC50 (GTPase KRas [1]): 4.3 nM | IC50 (GTPase KRas [2]): 5.4 nM

C=CC(=O)N1C[C@H](C)N(c2nc(=O)n3c4nc(c(F)cc24)-c2c(F)ccc(F)c2OCCOc2ccnc(C(C)C)c2-3)C[C@H]1C
IC50 (GTPase KRas [1]): 3.5 nM | IC50 (GTPase KRas [2]): 28 nM | Papp [7]: 15 ×10⁻⁶ cm/s | clearance [3]: 13 mL/min/kg | CL free [4]: 126 mL/min/kg | MRT [5]: 1.4 h | bioavailability [6]: 25% | clearance [8]: 32 mL/min/kg | CL free [9]: 130 mL/min/kg | MRT [10]: 0.8 h | bioavailability [11]: 67%

C=CC(=O)N1CCN(c2nc(=O)n3c4nc(c(F)cc24)-c2c(F)cccc2OCCCOc2ccnc(C(C)C)c2-3)[C@@H](C)C1
IC50 (GTPase KRas [1]): 11 nM | IC50 (GTPase KRas [2]): 21 nM

C=CC(=O)N1C[C@H](C)N(c2nc(=O)n3c4nc(c(F)cc24)-c2c(F)cc(F)cc2OCC(F)(F)CCc2ccnc(C(C)C)c2-3)C[C@H]1C
IC50 (GTPase KRas [1]): 1.1 nM | IC50 (GTPase KRas [2]): 8.9 nM | Papp [7]: 31 ×10⁻⁶ cm/s | clearance [3]: 10 mL/min/kg | CL free [4]: 270 mL/min/kg | MRT [5]: 2.6 h | bioavailability [6]: 53% | clearance [8]: 9.7 mL/min/kg | CL free [9]: 194 mL/min/kg | MRT [10]: 2.5 h | bioavailability [11]: 76%

C=CC(=O)N1CCN(c2nc(=O)n3c4nc(c(F)cc24)-c2c(F)cccc2OCCCCc2ccnc(C(C)C)c2-3)[C@@H](C)C1
IC50 (GTPase KRas [1]): 1.2 nM | IC50 (GTPase KRas [2]): 4.8 nM | Papp [7]: 17 ×10⁻⁶ cm/s | clearance [3]: 80 mL/min/kg | CL free [4]: 770 mL/min/kg | MRT [5]: 0.4 h | bioavailability [6]: 2% | bioavailability [12]: 50%
